Experimental data reported in publication PMC6408513, “A Novel Lactate Dehydrogenase Inhibitor, 1-(Phenylseleno)-4-(Trifluoromethyl) Benzene, Suppresses Tumor Growth through Apoptotic Cell Death” (Scientific Reports, 2019).

Columns and labels:
[1] = biological target: T1, lactate dehydrogenase A (LDHA) (Homo sapiens, UniProt P00338); assay: in vitro LDH activity assay by NADH fluorescence; Michaelis-Menten/Lineweaver-Burk; inhibits […]-pyruvate binding; assay type: biochemical; parameters: purified recombinant human LDHA
[2] = biological target: T1, lactate dehydrogenase A (LDHA); assay: […]-pyruvate radioligand binding to bead-bound LDHA, competed by unlabeled pyruvate; parameters: purified His tagged-LDHA
[3] = biological target: T1, lactate dehydrogenase A (LDHA); assay: in vitro LDH activity assay by NADH fluorescence; assay type: biochemical; parameters: purified recombinant human LDHA

In the case of `FC(F)(F)c1ccc([Se]c2ccccc2)cc1` [PSTMB, 1-(phenylseleno)-4-(trifluoromethyl)benzene], the IC50 [1] is reported as 145 nM.
In the case of `CC(=O)C(=O)O` [pyruvate], the “14C-pyruvate radioligand binding to bead-bound LDHA, competed by unlabeled pyruv” value [2] is reported as “The binding of pyruvate to LDHA was determined using C^14-labeled pyruvate”.
In the case of `c1ccc([Se]C2CCSC2)cc1` (stereo not drawn) [tetrahydro-3-(phenylseleno) thiophene], the “in vitro LDH activity assay by NADH fluorescence” value [3] is reported as “tetrahydro-3-(phenylseleno) thiophene, and 1-methoxy-4-[(phenylmethyl)seleno]benzene had inhibitory effects on LDHA activity”.
